Experimental data published in US7160890B2, “Compounds specific to adenosine A3 receptor and uses thereof” (OSI Pharmaceuticals, Inc., priority 1999, dated 2007).
One block for each molecule: values may come before it.

Assays:
[1] = biological target: T1, human A3 receptor subtype (Homo sapiens, UniProt P0DMS8); assay: Adenosine 3 receptor competition radioligand binding, [125I]AB-MECA, HEK293 membranes; conditions: compared with compound 1308
T1 construct: expressed in transfected cells; host or cells: HEK293
T1 sequence (P0DMS8 1-318): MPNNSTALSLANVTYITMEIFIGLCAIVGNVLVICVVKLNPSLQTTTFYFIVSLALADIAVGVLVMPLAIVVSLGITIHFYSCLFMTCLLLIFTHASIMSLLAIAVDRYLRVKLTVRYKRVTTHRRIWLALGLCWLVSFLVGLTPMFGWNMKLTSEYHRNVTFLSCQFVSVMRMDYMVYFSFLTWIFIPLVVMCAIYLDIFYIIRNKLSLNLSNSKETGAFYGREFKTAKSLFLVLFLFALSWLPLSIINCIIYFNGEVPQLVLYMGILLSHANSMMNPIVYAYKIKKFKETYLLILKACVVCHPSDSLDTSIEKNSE

[2] = biological target: human A1 adenosine receptor (Homo sapiens, UniProt P30542); conditions: cited from earlier work
[3] = biological target: T2, human A1 receptor subtype (Homo sapiens, UniProt P30542); conditions: Table 13, concentration not given
T2 sequence (P30542 1-326): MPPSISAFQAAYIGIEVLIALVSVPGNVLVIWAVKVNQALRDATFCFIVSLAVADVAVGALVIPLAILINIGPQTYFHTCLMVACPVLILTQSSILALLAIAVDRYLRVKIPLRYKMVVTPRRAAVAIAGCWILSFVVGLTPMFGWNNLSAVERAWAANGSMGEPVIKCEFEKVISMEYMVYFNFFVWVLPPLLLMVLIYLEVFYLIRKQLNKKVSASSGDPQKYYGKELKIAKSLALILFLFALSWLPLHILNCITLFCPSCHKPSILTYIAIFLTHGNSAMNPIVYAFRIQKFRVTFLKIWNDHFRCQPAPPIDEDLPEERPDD

[4] = biological target: T3, human A2a receptor subtype (Homo sapiens, UniProt P29274); assay: Adenosine 2a receptor subtype competition radioligand binding, [3H]CGS-21680, HEK293 membranes; conditions: Table 13, concentration not given
T3 construct: expressed in transfected cells; host or cells: HEK-293 (Cadus clone #5)
T3 sequence (P29274 whole entry): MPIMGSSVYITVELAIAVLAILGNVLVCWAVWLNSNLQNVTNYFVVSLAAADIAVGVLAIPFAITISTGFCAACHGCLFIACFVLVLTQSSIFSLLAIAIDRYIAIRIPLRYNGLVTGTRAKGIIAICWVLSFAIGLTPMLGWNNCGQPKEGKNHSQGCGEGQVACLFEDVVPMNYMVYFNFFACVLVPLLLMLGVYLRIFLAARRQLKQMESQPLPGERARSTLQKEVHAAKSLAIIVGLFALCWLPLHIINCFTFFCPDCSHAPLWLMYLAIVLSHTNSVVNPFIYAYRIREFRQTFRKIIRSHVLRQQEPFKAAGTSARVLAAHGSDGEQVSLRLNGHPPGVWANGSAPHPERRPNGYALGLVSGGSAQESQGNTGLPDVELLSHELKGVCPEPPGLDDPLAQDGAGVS

- melting point: 234 to 235 °C
- A3 receptor binding affinity relative to reference compound 1308 [1]: greater than 10 times
SMILES: c1ccc(-c2nc(NCCc3cnc[nH]3)c3cc[nH]c3n2)cc1 [Compound 1720, [2-(3H-Imidazol-4-yl)-ethyl]-(2-phenyl-7H-pyrrolo[2,3-d]pyrimidin-4-yl)-amine]

SMILES: CC(Cc1ccccc1)Nc1ncnc2c1ncn2[C@@H]1O[C@H](CO)[C@@H](O)[C@H]1O (single isomer, unassigned; (-)) [PIA, (−)-N6-(2-phenylisopropyl)-adenosine]
- reported affinity [2]: approximately 50 nM

SMILES: Cc1[nH]c2nc(-c3ccccc3)nc(NCCNC(=O)C3(N)CC3)c2c1C [Compound 1313]
- Binding A1, value printed in % [3]: 30%

SMILES: CNC(=O)NCCCNc1nc(-c2ccccc2)nc2[nH]c(C)c(C)c12 [Compound 1310]
- Binding A2a, value given in % [4]: 76%
